Measured values published in patent US20250064766A1, “COMPOSITIONS AND METHODS FOR INCREASING ARGININE AND NITRIC OXIDE LEVELS” (priority 2023, published 2025).
Converted amounts (≈) assume the structure as drawn.

How the values were obtained:
[1] = Urine arginine and citrulline levels following stimulating agent dosing (LC-MRM/MS); type: in vivo
Procedure: The subjects in each of Groups A and B were given a single 6 g dose (powder dissolved in about 4 oz of water). A urine sample is taken from each subject prior to dosing (baseline) and 24 hours after dosing. The pre-dosing sample for each subject is used as a baseline from which to compare any increase or decrease in arginine and/or citrulline urine levels. • Group A (8 subjects): 6 g of citrulline HCl in 4 oz. of water • Group B (8 subjects): 6 g of L-Citrulline in 4 oz. of water
A third group, consisting of seven subjects, were given a single 2 g dose, otherwise following the same protocol: • Group C (7 subjects): 2 g of citrulline HCl in 4 oz. of water
Internal standard (IS) solutions of arginine-13C6 and citrulline-d7 were prepared in 6 percent trichloroacetic acid solution. Standard substances of arginine and citrulline HCl were precisely weighed and dissolved in Sigmatrix Urine Diluent to make their stock solutions, at 5 mM for each compound. The two stock solutions were then mixed at an equal volume and the mixed standard solution was step by step diluted with Sigmatrix Urine Diluent to have nine serially diluted calibration solutions. The concentrations of each compound in the calibration solutions ranged from 0.015 to 250 μM.
Urine samples were thawed at room temperature. After vortex-mixing for 5 s, 100 μL of each sample was precisely aliquoted into a 1.5-mL Eppendorf safe-lock tube. A mixed urine sample was pooled from 100 μL of each of 10 randomly selected among all the urine samples. Nine 100-μL aliquots of this pooled urine sample were processed along with the batch samples and the calibration solutions for the purpose of quality control (QC) to monitor the analytical variations of the sample preparation and the assay.
To 100 μL of urine or 100 μL of each calibration solution, 100 μL of the IS solution was added. The mixtures were vortexed for 10 s at 3,000 rpm and then sonicated in an ice-water bath for 1 min, followed by centrifugal clarification at 21,000 g and 10° C. for 10 min. 100 μL of the clear supernatant of each solution was mixed with 900 μL of water. 4-μL aliquots of the resultant sample and calibration solutions were injected to run liquid chromatography-multiple reaction monitoring mass spectrometry (LC-MRM/MS) on an Agilent 1290 UHPLC system connected to an Agilent 6495B triple-quadrupole mass spectrometer, which was operated with positive-ion electrospray ionization and in the MRM mode using two pairs of MRM ion transitions and other MS parameters for arginine and citrulline, respectively.
A Waters HSS T3 UPLC column (2.1*100 mm, 1.8 μm) was used for the chromatographic separation and a 5-mM heptafluorobutyric acid solution and acetonitrile were used as the mobile phase for binary-solvent gradient elution under optimized conditions. LC-MRM/MS raw data files were acquired and processed using the Agilent MassHunter® software suite. For concentration calculations, linearly regressed calibration curves of arginine and citrulline were constructed respectively with the data acquired from the calibration solutions. Concentrations of the two compounds detected in urine were calculated by interpolating the calibration curve with the peak area ratios areas measured from the sample solutions, in an appropriate concentration range for each compound.

[2] = Plasma arginine and citrulline levels following stimulating agent dosing (LC-MRM/MS); type: in vivo
Procedure: Plasma samples from each of Groups A, B, and C were taken from each subject prior to dosing (baseline) and at 30 minute intervals thereafter up to 180 minutes after dosing (30, 60, 90, 120, and 180 minutes). The pre-dosing sample for each subject is used as a baseline from which to compare any increase or decrease in arginine and/or citrulline plasma levels.
Internal standard (IS) solution of arginine-13C6 and citrulline-d7 were prepared in 6 percent trichloroacetic acid solution. Standard substances of arginine and citrulline were precisely weighed and dissolved in SigMatrix Ultra Serum Diluent to make their stock solutions, at 2000 or 4000 µM for each compound. The stock solutions were then mixed and further diluted with SigMatrix Ultra Serum Diluent to have 9 serially diluted calibration solutions. The concentrations of each compound in the calibration solutions ranged from 0.0008 to 50 μM.
Plasma samples were thawed at room temperature. After vortex-mixing for 5 s, 50 μL of each sample was precisely aliquoted into a 1.5-mL Eppendorf safe-lock tube. […] Twelve 50-μL aliquots of this pooled plasma sample were processed in parallel and analyzed periodically, along with the preparation and analysis of the batch samples and the calibration solutions for the purpose of quality control (QC) to monitor the analytical variations of the sample preparation and the assay. […]

[3] = Saturated solubility in deionized water at 62° F.; settings: 16.7 °C, thermodynamic from solid
Procedure: Add five grams of conjugate or blend into 100 mL of water in a 250 ml Beaker. • 2. Record temperature of water before adding conjugate or blend. • 3. After conjugate is added to water, stir or swirl solution for 2 minutes exactly. • 4. If the solution is still cloudy or precipitate is present after 2 minutes, promptly transfer mixture into filter. • 5. If the solution is not cloudy and all of conjugate appears to have gone into solution, add another five grams of conjugate and repeat on from step 3. • 6. Record all data and amounts of conjugate added. • 7. Once solution with precipitate has been filtered, dry the filter with conjugate and use mass by difference to record dry mass of conjugate.
(§1) The solution was filtered, dried, and massed.
as §1, §1, §1, §1

[4] = single 6 g dose in 4 oz. of water, 24 hours after dosing
[5] = single 6 g dose in 4 oz. of water, Baseline (prior to dosing)

Row | SMILES | concentration at 24 h ([1]; human, urine, oral, single 2 g dose in 4 oz. of water, 24 hours after dosing, read-out: Citrulline Urine Levels Total Average Amount) [µM] | percent increase in urine citrulline 24 hours after dosing per gram ([1]; single 2 g dose) | Citrulline Urine Levels Total Average Amount ([1]; single 2 g dose in 4 oz. of water, Baseline (prior to dosing)) | percent increase in urine citrulline 24 hours after dosing per gram ([1]; single 6 g dose) | Citrulline Urine Levels Total Average Amount [1, 4] | Citrulline Urine Levels Total Average Amount [1, 5] | arginine production per dose, comparison of Groups A-C (plasma) ([2]; single 2 g dose, normalized per dose) | solubility at 2 min [3] [mg/mL] | amount of citrulline in plasma, comparison of Groups A-C ([2]; single 6 g dose) | solubility at 2 min ([3]; water) [mg/mL]
1 | Cl.NC(=O)NCCC[C@H](N)C(=O)O [Citrulline HCl, citrulline hydrochloride] | 17900 | about 300 percent/g | 2,471.80 μM | about 300 percent/g | 157,053.26 μM | 8,773.04 μM | highest arginine production per dose | 149 |  | 
2 | NC(=O)NCCC[C@H](N)C(=O)O [L-Citrulline, L-citrulline, reference compound] |  |  |  | about 1000 percent/g | 128,215.41 μM | 2,042.91 μM |  |  | much larger amount of citrulline in plasma | 49.8 (≈ 284 mM)
